According to patent publication US5985926A, “Method for inhibiting intracellular viral replication” (Cell Therapeutics, Inc., priority 1997, dated 1999):
Where two headings read alike, the source gives them in different places.

How the values were obtained:
[1] = test system: CMV promoter in 293-EBNA cells; assay: AP reporter gene expression from CMV promoter, 293-EBNA cells stably transfected with pCMV.AP; type: cell-based, human cytomegalovirus; human cells
Outline: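 293-EBNA cells carrying episomal pCMV.AP, expressing secreted placental alkaline phosphatase from the CMV enhancer/promoter, treated with various compound concentrations. Reporter expression read as change in A405 of conditioned medium with substrate such as ortho-nitrophenol phosphate.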

[2] = test system: HIV-LTR promoter in 293tat cells; assay: HIV-LTR directed AP reporter expression in 293tat cells activated by tat and TNF-α; type: cell-based; conditions: Homo sapiens
Description: 293tat cells, a cell line stably transfected with the expression plasmids pHIV.AP and pHIV.tat, were plated onto 96-well microtiter plates at 2000 cells per well. The media were changed the next day and CT2576 was added at the indicated concentrations to the fresh media with or without TNF-α (20 ng/ml). 2 μl of medium from each well was used for AP assay 24 hr later. After culture media were withdrawn for AP assay, cytotoxicity was measured for the same cell cultures using an indicator dye, Alamar Blue™, that would change color in response to the reduction potential of cell medium due to cell growth. The left y-axis refers to the absorbance value of the reduced form of Alamar Blue™ at 570 nm with the background absorbance at 600 nm from the oxidized form of Alamar Blue™ subtracted. Each data point represents the mean of triplicate samples with error bar indicating the standard deviation of the mean.
Stable cell lines 293tar, 293tat and 293tat2 were generated by transfections using conditions described in (Tate et al., FASEB J. 4:227-231, 1990) with the plasmid pHIV.AP alone or along with either pHIV.tat or pSV2tat72, respectively. The assay of HIV-1 p24 antigen expression in the chronically HIV-1-infected promonocytic line U1 after 4 days and in acutely infected peripheral blood lymphocytes (PBL) after 7 days were described (Peterson et al., J. Clin. Invest. 89:574-580, 1992, and Brighty et al., Proc Natl. Acad. Sci. USA 88:7802-7805, 1991).
This example illustrates that CT2576 inhibited TNF-α and tat-activated HIV-LTR promoter directed expression in 293tat cells. Cell activation signals generated by interaction of ligands with receptors are eventually converted to changes in the pattern of gene expression. A reporter gene expression system under the control of the HIV-LTR promoter was set up to investigate compounds that inhibit signaling pathway for HIV activation in infected cells. […]

Compound | IC50 ([1]; Homo sapiens, 293-EBNA, FIG. 8, read-out: concentration inhibiting AP activity by 50% (CMV assay)) [µM] | inhibition of AP expression (CMV promoter) ([1]; in words) | inhibition at 12 µM ([2]; 24 h, 293tat cells, CT2576 12 μM, after TNF-α or IL-1β induction, read-out: decrease in AP activity after TNF-α or IL-1β induction) [%] | IC50 ([2]; read-out: IC50, TNF-α induced HIV-LTR directed AP expression, 293tat cells, with TNF-α (20 ng/ml)) [µM] | IC50 ([2]; read-out: IC50, tat-dependent HIV-LTR directed AP expression, 293tat cells, tat activation, without TNF-α) [µM]
CCCCCCCCNCC(O)CCCCCCCCCN1C(=O)CCN(C)C1=O (centres unmarked) [CT1829, 3-(11-octylamino-10-hydroxyundecyl)-1-methyldihydrouracil] | 2 to 6 | inhibit CMV promoter driven expression |  |  | 
CCCCCCCCNCC(O)CCCCCCCCCn1c(=O)c2c(ncn2C)n(C)c1=O (centres unmarked) [CT2576, 1-(11-octylamino-10-hydroxyundecyl)-3,7-dimethylxanthine] |  |  | 83 to 90 | ~10 | ~10
